# Experimental data: PubChem BioAssay AID2060906 (Molecular Pharmacology Branch, DTP, NCI, 2025)
# System: 485176-168-R4-J1-PDC complex spheroid growth
# Assay: Anticancer human tumor 485176-168-R4-J1-PDC patient-derived pancreatic adenocarcinoma cell line growth inhibition [RAS]
# Settings: for IC50: curve of first compound; for viability, T/C: stronger effect = lower value
# Source text: RAS pathway inhibitors in Combinations in Complex Spheroids
# A high-throughput screen of multi-cell type tumor spheroids was designed to identify active combinations of RAS pathway inhibitors and targeted small molecules. Complex spheroids include a stromal component modeled by human endothelial cells (HUVEC) and fibroblasts modeled by human mesenchymal stem cells (MSCs). The concentration ranges selected for each drug and investigational agent were based upon clinically achievable concentrations if the clinical Cmax of the agent was known.
# Compounds. The drugs and investigational agents: abemaciclib (NSC768073), cobimetinib (NSC768068), divarasib (GDC6063, NSC841802), docetaxel (NSC628503), GDC-1971 (RLY-1971, NSC841576), gemcitabine (NSC613327), inavolisib (NSC800729), ipatasertib (NSC767898), KB-0742 (NSC834161), MRTX-1133 (NSC836407), osimertinib (NSC779217), RMC-4630 (NSC839698), RMC-6236 (NSC851965), RMC-6291 (NSC852671), Ro-3306 (NSC812927), sapanisertib (NSC764658), SN-38 (NSC673596), staurosporine (NSC755774), SY5609 (NSC837396), and tovorafenib (DAY101, NSC766906), were obtained from the National Cancer Institute (NCI) Developmental Therapeutics Program Chemical Repository. The FDA-approved anticancer drug set is available from the NCI Developmental Therapeutics Program. […] The stock solutions were prepared in dimethyl sulfoxide (DMSO, Sigma-Aldrich, St. Louis, MO, cat. D2650) at 800-fold the tested concentration and stored at -70 degrees C prior to their use. All drugs and investigational agents were tested over a range starting from a high concentration at or near the clinical Cmax and decreasing in half-log increments. If the clinical Cmax for an agent had not been determined, the highest concentration tested was 10 microM.
# Cell Culture. All cells were maintained in an incubator at 37 degrees C and 5% CO2 with 95% humidity. The PDC lines were cultured according to standard operating procedures established by the NCI PDMR. All PDCs were thawed and cultured in Matrigel-coated flasks prepared with a working solution of 1X Ham's F-12 nutrient mix, without supplementation (Invitrogen, Waltham, MA, cat. 11765054), 100 U/mL penicillin-streptomycin (Invitrogen, cat. 15140122), and 2.5% Matrigel (Corning Inc., Corning, NY, cat. 354248) for the first three passages. The 362531-283-R-J2-PDC and 782815-120-R-J1-PDC lines were cultured in 6C/Colon 1B media, which includes advanced DMEM/F-12 (Thermo Fisher Scientific, cat. 12634028), 10 mM HEPES (Thermo Fisher Scientific, cat. 15630080), 1X GlutaMAX supplement (Thermo Fisher Scientific, cat. 35050061), 0.1 mg/mL primocin (InvivoGen, San Diego, CA, cat. ant-pm-2), 10% defined fetal bovine serum, heat inactivated (HyClone Laboratories Inc., Logan, UT, cat. SH30070.03HI), 50% L-WRN conditioned media (ATCC, cat. CRL-3276), 1.25 mM N-Acetyl-L-cysteine (Sigma-Aldrich, cat. A9165), 10 mM nicotinamide (Sigma-Aldrich, cat. N0636), 1X B-27 supplement (Thermo Fisher Scientific, cat. 17504044), 1X N-2 supplement (Thermo Fisher Scientific, cat. 17502048), 50 ng/mL human EGF (Thermo Fisher Scientific, cat. PHG0311), and 10 microM Y-27632 dihydrochloride (Tocris Bioscience, cat. 1254). The K12877-001-R-J1-PDC line was cultured in 6I media, which includes all 6C/Colon 1B media plus 10 ng/mL human FGF-10 (PeproTech, cat. 100-26), 1 ng/mL human FGF-2 (PeproTech, cat. 100-18B), 1 µM prostaglandin E2 (Tocris Bioscience, cat. 2296), […] hydrocortisone (Sigma-Aldrich, cat. H4001), and […] bovine insulin (Sigma-Aldrich, cat. I6634). The K86415-001-R-J1-PDC line was cultured in 6D media, which includes all 6C/Colon 1B media components minus the L-WRN conditioned media. The 485176-168-R4-J1-PDC was cultured in PANC media, which includes all 6C/Colon 1B media plus 100 ng/mL human FGF-10 (PeproTech, cat. 100-26), 500 nM SB-431542 (Selleckchem, cat. S1067), and 10 nM gastrin (Tocris Bioscience, cat. 3006). […]
# 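Also: spheroids exposed to compounds for seven days before readout.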
# 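For viability, T/C in this document: luminescence viability expressed relative to DMSO vehicle wells set as 100%.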
smiles,measurement,setting,value
CC(Nc1ccc2c(c1)OCCn1cc(N3C(=O)OCC3C(F)F)nc1-2)C(N)=O (configuration not stated) + C#Cc1c(F)ccc2cc(O)cc(-c3ncc4c(N5CC6CCC(C5)N6)nc(OCC56CCCN5CC(F)C6)nc4c3F)c12,IC50,second compound 0.0316 µM,> 10 µM
same,IC50,second compound 0.1 µM,> 10 µM
same,IC50,second compound 0.316 µM,> 10 µM
same,IC50,second compound 1 µM,> 10 µM
same,IC50,second compound 3.16 µM,> 10 µM
same,IC50,second compound 10 µM,> 10 µM
same,"viability, T/C","second compound 0.0316 µM, first compound 0.0316 µM",97.5%
same,"viability, T/C","second compound 0.0316 µM, first compound 0.1 µM",86.5%
same,"viability, T/C","second compound 0.0316 µM, first compound 0.316 µM",91.8%
same,"viability, T/C","second compound 0.0316 µM, first compound 1 µM",83.5%
same,"viability, T/C","second compound 0.0316 µM, first compound 3.16 µM",59.1%
same,"viability, T/C","second compound 0.0316 µM, first compound 10 µM",65.4%
same,"viability, T/C","second compound 0.1 µM, first compound 0.0316 µM",114%
same,"viability, T/C","second compound 0.1 µM, first compound 0.1 µM",98.6%
same,"viability, T/C","second compound 0.1 µM, first compound 0.316 µM",71.9%
same,"viability, T/C","second compound 0.1 µM, first compound 1 µM",70.8%
same,"viability, T/C","second compound 0.1 µM, first compound 3.16 µM",69.4%
same,"viability, T/C","second compound 0.1 µM, first compound 10 µM",50%
same,"viability, T/C","second compound 0.316 µM, first compound 0.0316 µM",92.5%
same,"viability, T/C","second compound 0.316 µM, first compound 0.1 µM",75%
same,"viability, T/C","second compound 0.316 µM, first compound 0.316 µM",88.8%
same,"viability, T/C","second compound 0.316 µM, first compound 1 µM",79.4%
same,"viability, T/C","second compound 0.316 µM, first compound 3.16 µM",75.3%
same,"viability, T/C","second compound 0.316 µM, first compound 10 µM",54.8%
same,"viability, T/C","second compound 1 µM, first compound 0.0316 µM",107%
same,"viability, T/C","second compound 1 µM, first compound 0.1 µM",81.1%
same,"viability, T/C","second compound 1 µM, first compound 0.316 µM",85.8%
same,"viability, T/C","second compound 1 µM, first compound 1 µM",90.5%
same,"viability, T/C","second compound 1 µM, first compound 3.16 µM",78%
same,"viability, T/C","second compound 1 µM, first compound 10 µM",56.6%
same,"viability, T/C","second compound 3.16 µM, first compound 0.0316 µM",107%
same,"viability, T/C","second compound 3.16 µM, first compound 0.1 µM",94.2%
same,"viability, T/C","second compound 3.16 µM, first compound 0.316 µM",85.8%
same,"viability, T/C","second compound 3.16 µM, first compound 1 µM",79.9%
same,"viability, T/C","second compound 3.16 µM, first compound 3.16 µM",53.4%
same,"viability, T/C","second compound 3.16 µM, first compound 10 µM",56.5%
same,"viability, T/C","second compound 10 µM, first compound 0.0316 µM",91.7%
same,"viability, T/C","second compound 10 µM, first compound 0.1 µM",88.9%
same,"viability, T/C","second compound 10 µM, first compound 0.316 µM",67.7%
same,"viability, T/C","second compound 10 µM, first compound 1 µM",71.4%
same,"viability, T/C","second compound 10 µM, first compound 3.16 µM",72.1%
same,"viability, T/C","second compound 10 µM, first compound 10 µM",44%
